Our source for the Kd values is PMC5377825, “Catalytic Determinants of Alkene Production by the Cytochrome P450 Peroxygenase OleTJE” (The Journal of Biological Chemistry, 2017).

Holding throughout (assay): UV-visible heme spectral titration
Assay type in all cases: binding

The target in assay [1] is T1, OleTJE (CYP152L1) (Jeotgalicoccus sp. ATCC 8456, UniProt E9NSU2).
T1 construct: gene JEM45_03820; full length, codon-optimized gene in modified pET15b, N-terminal polyhistidine tag with TEV site; tag kept for spectroscopy, cleaved for crystallography; expressed in E. coli C41 (DE3)
T1 sequence (E9NSU2 1-422): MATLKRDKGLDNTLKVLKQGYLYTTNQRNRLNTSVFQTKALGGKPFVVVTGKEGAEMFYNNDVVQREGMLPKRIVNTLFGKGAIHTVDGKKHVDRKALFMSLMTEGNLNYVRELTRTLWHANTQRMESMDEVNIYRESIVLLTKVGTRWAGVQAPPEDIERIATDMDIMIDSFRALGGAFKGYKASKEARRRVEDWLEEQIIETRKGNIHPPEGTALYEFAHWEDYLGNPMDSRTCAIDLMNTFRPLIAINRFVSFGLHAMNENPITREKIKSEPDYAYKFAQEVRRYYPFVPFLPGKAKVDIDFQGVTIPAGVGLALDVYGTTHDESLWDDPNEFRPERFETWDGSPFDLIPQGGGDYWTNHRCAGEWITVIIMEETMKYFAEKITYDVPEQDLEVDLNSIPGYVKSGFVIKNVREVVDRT
The source says: (§1) UV-visible heme spectral titration on OleTJE (CYP152L1)

Assay [2] has as its target T2, OleTJE (CYP152L1) (Jeotgalicoccus sp. ATCC 8456, UniProt E9NSU2, F79A).
T2 construct: gene JEM45_03820; full length, codon-optimized gene in modified pET15b, N-terminal polyhistidine tag with TEV site; tag kept for spectroscopy, cleaved for crystallography; expressed in E. coli C41 (DE3)
T2 sequence (E9NSU2 1-422 F79A): T1 sequence (E9NSU2 1-422) with F79A
Source text: as §1

The target of assay [3] is T3, OleTJE (CYP152L1) (Jeotgalicoccus sp. ATCC 8456, UniProt E9NSU2, R245E).
T3 construct: gene JEM45_03820; full length, codon-optimized gene in modified pET15b, N-terminal polyhistidine tag with TEV site; tag kept for spectroscopy, cleaved for crystallography; expressed in E. coli C41 (DE3)
T3 sequence (E9NSU2 1-422 R245E): T1 sequence (E9NSU2 1-422) with R245E
As to conditions: read-out: Fatty acid Kd (HS) / C10:0.
Source text: as §1

Assay [4] has as its target T4, OleTJE (CYP152L1) (Jeotgalicoccus sp. ATCC 8456, UniProt E9NSU2, F79Y).
T4 construct: gene JEM45_03820; full length, codon-optimized gene in modified pET15b, N-terminal polyhistidine tag with TEV site; tag kept for spectroscopy, cleaved for crystallography; expressed in E. coli C41 (DE3)
T4 sequence (E9NSU2 1-422 F79Y): T1 sequence (E9NSU2 1-422) with F79Y
Source text: as §1

The target of assay [5] is T5, OleTJE (CYP152L1) (Jeotgalicoccus sp. ATCC 8456, UniProt E9NSU2, H85Q).
T5 construct: gene JEM45_03820; full length, codon-optimized gene in modified pET15b, N-terminal polyhistidine tag with TEV site; tag kept for spectroscopy, cleaved for crystallography; expressed in E. coli C41 (DE3)
T5 sequence (E9NSU2 1-422 H85Q): T1 sequence (E9NSU2 1-422) with H85Q
Source text: as §1

Assay [6] addresses T6, OleTJE (CYP152L1) (Jeotgalicoccus sp. ATCC 8456, UniProt E9NSU2, F79W).
T6 construct: gene JEM45_03820; full length, codon-optimized gene in modified pET15b, N-terminal polyhistidine tag with TEV site; tag kept for spectroscopy, cleaved for crystallography; expressed in E. coli C41 (DE3)
T6 sequence (E9NSU2 1-422 F79W): T1 sequence (E9NSU2 1-422) with F79W
Source text: as §1

[7] abbreviates: read-out: Fatty acid Kd (HS) / C10:0.
The mark [8] stands for this setting: read-out: Fatty acid Kd (HS) / C12:0.
The mark [9] stands for this setting: read-out: Fatty acid Kd (HS) / C14:0.
The mark [10] stands for this setting: read-out: Fatty acid Kd (HS) / C16:0.
[11] abbreviates: read-out: Fatty acid Kd (HS) / C18:0.
The mark [12] stands for this setting: read-out: Fatty acid Kd (HS) / C20:0.

Where a chain is given by its changes, count along the chain named. Where two headings read alike, the source gives them in different places.

`CCCCCCCCCC(=O)O` [C10:0, decanoic acid]: the values for the Kd on OleTJE (CYP152L1) [1] (setting [7]), at OleTJE (CYP152L1) [2] (setting [7]) and on OleTJE (CYP152L1) [3] were 47.1 ± 2.1 µM, 465 ± 11 µM and 1260 ± 160 µM, respectively.
For the compound `CCCCCCCCCCCC(=O)O` [C12:0, dodecanoic acid], the Kd at OleTJE (CYP152L1) [1] (setting [8]) was 11.7 ± 0.43 µM; at OleTJE (CYP152L1) [4] (setting [8]) it was 196 ± 5 µM; on OleTJE (CYP152L1) [5] (setting [8]), 37.3 ± 2.5 µM; at OleTJE (CYP152L1) [2] (setting [8]), 55 ± 4.8 µM; on OleTJE (CYP152L1) [6] (setting [8]), 106 ± 9 µM.
With `CCCCCCCCCCCCCC(=O)O` [C14:0, tetradecanoic acid], the Kd on OleTJE (CYP152L1) [1] (setting [9]) was 1.45 ± 0.05 µM; on OleTJE (CYP152L1) [4] (setting [9]), 30.7 ± 1 µM; on OleTJE (CYP152L1) [5] (setting [9]), 10.5 ± 0.1 µM; at OleTJE (CYP152L1) [2] (setting [9]), 39.1 ± 2.5 µM; at OleTJE (CYP152L1) [6] (setting [9]), 24.1 ± 0.9 µM.
As for `CCCCCCCCCCCCCCCC(=O)O` [C16:0, hexadecanoic acid], the Kd was 1.73 ± 0.08 µM at OleTJE (CYP152L1) [1] (setting [10]), 5.36 ± 0.18 µM on OleTJE (CYP152L1) [5] (setting [10]), 22.6 ± 1.9 µM on OleTJE (CYP152L1) [2] (setting [10]) and 12.7 ± 0.7 µM at OleTJE (CYP152L1) [6] (setting [10]).
Turning to `CCCCCCCCCCCCCCCCCC(=O)O` [C18:0, octadecanoic acid], the Kd was determined as 4.09 ± 0.16 µM at OleTJE (CYP152L1) [1] (setting [11]), 5.92 ± 0.08 µM at OleTJE (CYP152L1) [5] (setting [11]), 8.7 ± 0.5 µM on OleTJE (CYP152L1) [2] (setting [11]) and 4.52 ± 0.2 µM at OleTJE (CYP152L1) [6] (setting [11]).
Turning to `CCCCCCCCCCCCCCCCCCCC(=O)O` [C20:0, eicosanoic acid], the Kd was found to be 4.43 ± 0.19 µM at OleTJE (CYP152L1) [1] (setting [12]); 4.25 ± 0.21 µM at OleTJE (CYP152L1) [4] (setting [12]); 5.27 ± 0.05 µM on OleTJE (CYP152L1) [5] (setting [12]); 3.4 ± 0.3 µM at OleTJE (CYP152L1) [2] (setting [12]); 4.41 ± 0.27 µM on OleTJE (CYP152L1) [6] (setting [12]).
